Molecular target: T1, human ZAC (zinc activated ion channel) (Homo sapiens, UniProt Q401N2)
T1 construct: expressed in transfected cells; host or cells: HEK (human embryonic kidney) cells, transient calcium phosphate transfection, vector pcDNA1.1/amp, GFP co-transfected on a separate plasmid (pCDM8)
T1 sequence (Q401N2 26-412): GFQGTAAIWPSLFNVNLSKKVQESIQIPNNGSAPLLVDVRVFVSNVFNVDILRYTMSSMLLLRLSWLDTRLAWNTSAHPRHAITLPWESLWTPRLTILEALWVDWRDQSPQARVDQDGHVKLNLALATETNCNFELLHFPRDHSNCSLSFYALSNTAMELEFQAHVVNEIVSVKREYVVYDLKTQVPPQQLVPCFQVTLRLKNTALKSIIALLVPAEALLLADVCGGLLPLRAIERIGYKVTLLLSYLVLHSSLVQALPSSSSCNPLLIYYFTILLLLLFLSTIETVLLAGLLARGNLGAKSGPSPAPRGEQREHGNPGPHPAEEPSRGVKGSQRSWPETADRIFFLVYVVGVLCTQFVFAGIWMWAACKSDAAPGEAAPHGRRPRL
Assay: Whole cell patch-clamp recording of currents from HEK cells transfected with human ZAC
Format: cell-based
Conditions: not given
Description: To generate HEK expressing hZAC, HEK cells were grown in Dulbecco's modified Eagle's medium, supplemented with 10% calf serum, 100 IU/ml penicillin, and 100 μg/ml streptomycin. Following confluence, the cells were seeded into 35 mm diameter dishes and transfected with cDNAs encoding the human ZAC subunit (in pcDNA1.1/amp) and green fluorescent protein (GFP) (in pCDM8). Cells were transfected using calcium phosphate precipitation as known in the art. Cells were used 24-44 h after transfection.
The whole cell patch-clamp technique was used to record currents from HEK cells. The bath was perfused continuously (5 ml/min) with an extracellular solution containing (in mM); NaCl, 140; KCl, 4.7; MgCl2, 1.2; CaCl2, 2.5; glucose, 11; and HEPES, 10 (pH 7.4 with NaOH). The electrode solution contained (in mM); KCl, 140; MgCl2, 2.0; EGTA, 11; and HEPES, 10 (pH 7.4 with KOH). The intracellular solution used to characterize the cation permeability of ZAC channels contained (in mM); KCl, 70; N-methyl-D-glucamine, 70; MgCl2, 2.0; EGTA, 11; and HEPES, 10 (pH 7.4 with HCl). The intracellular solution used to determine the contribution of Cl^− to the ZAC currents contained (in mM); KCl, 70; K^+ gluconate, 70; MgCl2, 2.0; EGTA, 11; and HEPES, 10 (pH 7.4 with KOH). Junction potentials were nulled prior to each experiment. Inappropriate inappropriate compensation was ignored in graphs of current-voltage relationships, but equilibrium potential values were corrected. Cells were clamped at −60 mV unless otherwise stated. Drugs were applied either by pressure ejection from modified micropipettes or by bath perfusion as known in the art. Experiments were performed at 22-24° C.
Currents were amplied (Axopatch 200A, Axon Instruments), low pass-filtered at 1 kHz, and digitized (Digidata 1320, Axon Instruments, Foster City, Calif.) for acquisition onto the hard drive of a personal computer. Currents were averaged, superimposed, and measured using pCLAMP software (Axon Instruments). Zn^+2 concentration-response data were obtained by prolonged (2 s) pressue ejection of randomized agonist concentrations from low resistance pipettes as known in the art.
To compensate, 1 mM Zn^+2 was applied before each concentration of Zn^+2. The amplitudes of the Zn^+2 activated currents were subsequently normalized to the current elicited by the prior application of 1 mM Zn^+2.
Graphs of concentration-response relationships were fitted using a logistic function as known in the art. Current-voltage relationships were analyzed by averaging at least two currents recorded at each holding potential. Individual current-voltage relationships were plotted, and a linear fit to points either side of current reversal yielded the equilibrium potential. All data are expressed as the arithmetic mean±S.E., and statistical comparisons were made using the Student's t test.

| Compound | Activation of ZAC | Effect of antagonists on ZAC (inhibition) |
| --- | --- | --- |
| CNC[C@H](O)c1ccc(O)c(O)c1 [epinephrine] | did not activate | – |
| α-bungarotoxin | – | no effect |
| CC(C)c1cccc(C(C)C)c1O [propofol] | did not activate | – |
| CN1CC[C@]23c4c5ccc(O)c4O[C@H]2[C@@H](O)C=C[C@H]3[C@H]1C5 [morphine] | did not activate | – |

Same assay, conditions: HEK cells expressing hZAC, whole cell patch-clamp

| Compound | Effect of antagonists on ZAC (inhibition) | Concentration required for activation of ZAC [µM] |
| --- | --- | --- |
| COc1cc2c3cc1Oc1cc(ccc1O)C[C@@H]1c4c(cc(OC)c(O)c4Oc4ccc(cc4)C[C@@H]3N(C)CC2)CC[N+]1(C)C [Tubocurarine] | inhibited | – |
| C[N+]1(C)CCc2cc3c(cc2[C@H]1[C@@H]1OC(=O)c2c1ccc1c2OCO1)OCO3.[I-] [bicuculline methiodide] | no effect | – |
| [Zn+2] [Zn^+2, zinc] | – | > 30 |
| Cc1nccn1CC1CCc2c(c3ccccc3n2C)C1=O (stereo not shown) [ondansetron] | no effect | – |
| CNC1(C)C2CCC(C2)C1(C)C (stereo not shown) [mecamylamine] | no effect | – |

Same assay, conditions: HEK cells expressing hZAC, whole cell patch-clamp, clamped at −60 mV, 22-24° C.

| Compound | Activation of ZAC |
| --- | --- |
| galonin | did not activate |
| NCCc1ccc(O)c(O)c1 [dopamine] | did not activate |
| NCCc1c[nH]cn1 [histamine] | did not activate |
| CC[C@H](C)[C@@H]1NC(=O)[C@H](Cc2ccc(O)cc2)NC(=O)[C@@H](N)CSSC[C@@H](C(=O)N2CCC[C@H]2C(=O)N[C@@H](CC(C)C)C(=O)NCC(N)=O)NC(=O)[C@H](CC(N)=O)NC(=O)[C@H](CCC(N)=O)NC1=O [oxytocin] | did not activate |
| NCCCC(=O)O [GABA, γ-amino butyric acid] | did not activate |
| NCCc1c[nH]c2ccc(O)cc12 [5-HT, 5-hydroxytryptamine] | did not activate |
| somatostain | did not activate |
| NCC(=O)O [glycine] | did not activate |
| N[C@@H](CCC(=O)O)C(=O)O [glutamate] | did not activate |
| N[C@@H](CCC(=O)N[C@@H](CS)C(=O)NCC(=O)O)C(=O)O [glutathione] | did not activate |
| [Zn+2] [Zn^+2, zinc] | activated |
| neuropeptide Y | did not activate |
| Nc1ncnc2c1ncn2[C@@H]1O[C@H](COP(=O)(O)OP(=O)(O)OP(=O)(O)O)[C@@H](O)[C@H]1O [ATP] | did not activate |
| CNC1(c2ccccc2Cl)CCCCC1=O (stereo not shown) [ketamine] | did not activate |
| CC(=O)[C@H]1CC[C@H]2[C@@H]3CC[C@H]4C[C@H](O)CC[C@]4(C)[C@H]3CC[C@]12C [allopregnanolone] | did not activate |

Same assay, conditions: HEK cells expressing hZAC, whole cell patch-clamp; mean±S.E.

| Compound | Equilibrium potential of Zn+2 activated currents [mV] |
| --- | --- |
| [Zn+2] [Zn^+2, zinc] | −5±1 |

Reference: patent publication US20040248245A1, “Zinc activated ion channel” (priority 2003, published 2004)
